# Measured values published in patent US20230255930A1, “METHOD OF INCREASING THE POPULATION OF COPROCOCCUS SPP. IN THE GUT MICROBIOME” (priority 2020, published 2023).
# What was measured:
# Coprococcus [1] = experiment: Clinical study of colon-targeted vitamins; fecal relative abundance of Coprococcus by shotgun metagenomics; format: in vivo; settings: human feces, colon-targeted delivery for four weeks, compared to baseline
# From the text: Twelve participants were allocated to each of the six vitamin groups, and 24 participants allocated to the placebo group. […] To be considered eligible for enrolment into the study, participants have to be able to give written informed consent; be aged between 20 and 50 years of age; have a BMI of between 18.5 - 30 Kg/m2; have a stable body weight (< 5% change) over the past 3-months; be in generally good health, as determined by the investigator; have not consumed dietary supplements, prebiotic, probiotic, dietary or fiber-rich supplements within 4 weeks prior to baseline visit and be willing to avoid these supplements until the end of the study; be willing to avoid liver consumption for the duration for the study, be willing to maintain their current level of physical activity for the duration of the study; and be willing to consume the IP daily for the duration of the study. Any participants who have a typical fiber intake >30 g/day; were pregnant or planning to become pregnant, have consumed disallowed medications; had made major dietary changes over the past three months or had planned major lifestyle changes; had taken part in a study within the previous 60 days; or had any ongoing or previous illness that the investigator deemed would impact on the objectives of the study were excluded. […] Each subject provided written informed consent before inclusion in the study.
# At the final visit (Visit 3) participants retuned a fecal samples collected in the previous 48 hours. […] Participants returned their IP and compliance was assessed. […]
# Coprococcus [2] = experiment: In vitro intestinal batch fermentation with human fecal suspension; 16S rRNA Illumina sequencing; format: cell-based; settings: fermentation supernatant at 24 h, versus control
# Protocol: At the start of this intestinal batch fermentation incubation, all test ingredients were added from stock solutions to the modified nutritional medium, containing (g/l): 2.5 K2HPO4, 10.9 KH2PO4, 2 NaHCO3, 2 yeast extract, 2 peptone, 1 mucin, 0.5 cysteine, 2 Tween 80, 2 glucose, 2 starch, 2 cellobiose, 0.1 NaCl, 0.01 MgSO4.7H2O, 0.01 CaCl2.6H2O, 0.05 hemin, 0.5 bile salts.
# The following compounds were added from stock solutions prepared in water: • Beta-carotene, • Vitamin B3, • Vitamin B5, • Vitamin B7, • Fructooligosaccharides Fructooligosaccharides are included as a positive control.
# As a source of the microbial community, freshly prepared fecal suspension from a human donor was added to the reactors. […] All tests, except the blanks, were performed in single repetition. Incubation conditions were 48 h at 37° C., under shaking (90 rpm) and anaerobic conditions.
# Microbial composition: Illumina sequencing was performed at the start and after 24 h of incubation. The technique targets the16S rRNA gene that consists of variable and conserved regions, spread over the gene. Due to their key role in protein expression, the conserved regions are characterized by very low evolutionary rates.
# The methodology applied involves primers that span 2 hypervariable regions (V3-V4) of the 16S rRNA gene. Using a pair-end sequencing approach, sequencing of 2×250 bp results in 424 bp amplicons. Such fragments are taxonomically more informative as compared to smaller fragments. In brief, mothur (v. 1.42.0) was used to assemble reads into contigs, perform alignment-based quality filtering (alignment to the mothur-reconstructed SILVA SEED alignment, v. 123), remove chimeras, assign taxonomy using a naïve Bayesian classifier and SILVA NR v132 and cluster contigs into OTUs. All sequences classified as Eukaryota, Archaea, Chloroplasts and Mitochondria were removed, as well as sequences that could not be classified. For each OTU, representative sequences were selected as the most abundant sequence within that OTU.
# Coprococcus comes = experiment: Clinical study of colon-targeted vitamins; fecal relative abundance of Coprococcus comes by shotgun metagenomics; format: in vivo; settings: human feces, colon-targeted delivery for four weeks
# From the text: Twelve participants were allocated to each of the six vitamin groups, and 24 participants allocated to the placebo group. All 96 participants completed the intervention. To be considered eligible for enrolment into the study, participants have to be able to give written informed consent; be aged between 20 and 50 years of age; have a BMI of between 18.5 - 30 Kg/m2; have a stable body weight (< 5% change) over the past 3-months; be in generally good health, as determined by the investigator; have not consumed dietary supplements, prebiotic, probiotic, dietary or fiber-rich supplements within 4 weeks prior to baseline visit and be willing to avoid these supplements until the end of the study; be willing to avoid liver consumption for the duration for the study, be willing to maintain their current level of physical activity for the duration of the study; and be willing to consume the IP daily for the duration of the study. […]
# The trial was a randomized, double-blind, placebo-controlled, parallel study in which subjects received either the vitamin supplement or placebo over four weeks. […] Before the randomization visit, participants food frequency questionnaires were analyzed to ensure their typical fiber intake is <30 g fiber/day. […]
# At the baseline visit (Visit 2), participants retuned a fecal samples collected in the previous 48 hours and eligibility was assessed. […]
molecule,measurement,setting,value
vitamin A,relative abundance of Coprococcus,Coprococcus [1],trends for an increase
"O=C(O)CCCC[C@@H]1SC[C@@H]2NC(=O)N[C@@H]21 [vitamin B7, Biotin]",Coprococcus relative abundance,"Coprococcus [2]; doses 0.2x, 1x, 5x tested",no distinct increase
"CC1=C(/C=C/C(C)=C/C=C/C(C)=C/C=C/C=C(C)/C=C/C=C(C)/C=C/C2=C(C)CCCC2(C)C)C(C)(C)CCC1 [beta-carotene, β-carotene]",Coprococcus relative abundance,Coprococcus [2]; dose 1x,increased
same,Coprococcus relative abundance,Coprococcus [2]; dose 5x,increased
"O=C1O[C@H]([C@@H](O)CO)C(O)=C1O [vitamin C, ascorbic acid]",relative abundance of Coprococcus,Coprococcus [1],not
"CC(C)(CO)[C@@H](O)C(=O)NCCC(=O)O [vitamin B5, Pantothenic acid]",Coprococcus relative abundance,Coprococcus [2]; dose 0.2x,increased
same,Coprococcus relative abundance,Coprococcus [2]; dose 5x,increased
"C=C1CC[C@H](O)C/C1=C/C=C1\CCC[C@]2(C)[C@@H]([C@H](C)CCCC(C)C)CC[C@@H]12 [vitamin D3, cholecalciferol]",Coprococcus comes relative abundance,Coprococcus comes; compared to baseline (p = 0.04),significant increase
same,Coprococcus comes relative abundance,Coprococcus comes; compared to placebo group (p = 0.028),significant increase
same,relative abundance of Coprococcus,Coprococcus [1],trends for an increase
"NC(=O)c1cccnc1 [vitamin B3, Niacinamide]",Coprococcus relative abundance,"Coprococcus [2]; doses 0.2x, 1x, 5x tested",no distinct increase
